PubChem BioAssay (NCI)
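Values below derive from 48-hour exposures of cells grown in 96-well plates, with endpoints linearly interpolated between the two concentrations bracketing the appropriate inhibition level. TGI: total growth inhibition.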

Experiments:
Test in all cases: NCI anticancer screen, dose series, 48 h
CAKI-1 renal = test system: CAKI-1 renal
CCRF-CEM leukemia = test system: CCRF-CEM leukemia
COLO 205 colon = test system: COLO 205 colon
EKVX NSCLC = test system: EKVX NSCLC
HL-60(TB) leukemia = test system: HL-60(TB) leukemia
HOP-92 NSCLC = test system: HOP-92 NSCLC
HT29 colon = test system: HT29 colon
K-562 leukemia = test system: K-562 leukemia
LOX IMVI melanoma = test system: LOX IMVI melanoma
MOLT-4 leukemia = test system: MOLT-4 leukemia
NCI-H23 lung = test system: NCI-H23 lung
NCI-H460 lung = test system: NCI-H460 lung
OVCAR-3 ovarian = test system: OVCAR-3 ovarian
RXF 393 renal = test system: RXF 393 renal
SF-295 CNS = test system: SF-295 CNS
SF-539 CNS = test system: SF-539 CNS
SK-MEL-5 melanoma = test system: SK-MEL-5 melanoma
SN12C renal = test system: SN12C renal
OVCAR-8 ovarian = test system: OVCAR-8 ovarian
NCI/ADR-RES ovarian = test system: NCI/ADR-RES ovarian

| SMILES | TGI (CAKI-1 renal) | TGI (CCRF-CEM leukemia) | TGI (COLO 205 colon) | TGI (EKVX NSCLC) | TGI (HL-60(TB) leukemia) | TGI (HOP-92 NSCLC) | TGI (HT29 colon) | TGI (K-562 leukemia) | TGI (LOX IMVI melanoma) | TGI (MOLT-4 leukemia) | TGI (NCI-H23 lung) | TGI (NCI-H460 lung) | TGI (OVCAR-3 ovarian) | TGI (RXF 393 renal) | TGI (SF-295 CNS) | TGI (SF-539 CNS) | TGI (SK-MEL-5 melanoma) | TGI (SN12C renal) | TGI (OVCAR-8 ovarian) | TGI (NCI/ADR-RES ovarian) |
| --- | --- | --- | --- | --- | --- | --- | --- | --- | --- | --- | --- | --- | --- | --- | --- | --- | --- | --- | --- | --- |
| COc1ccc(C2c3cc4c(cc3OC(Nc3ccccc3)C2C)OCO4)cc1 (stereo unspecified) | > 100 µM | > 100 µM | > 100 µM | 98.7 µM | 59.3 µM | > 100 µM | > 100 µM | > 100 µM | > 100 µM | > 100 µM | > 100 µM | > 100 µM | > 100 µM | > 100 µM | > 100 µM | > 100 µM | > 100 µM | > 100 µM | – | – |
| CN(C)CCCNC(=O)N/N=C/c1ccccc1 | – | > 100 µM | – | – | > 100 µM | – | > 100 µM | > 100 µM | > 100 µM | > 100 µM | – | > 100 µM | > 100 µM | > 100 µM | > 100 µM | > 100 µM | > 100 µM | > 100 µM | > 100 µM | – |
| CCOC(=O)c1csc(NC(=O)CCN2CCN(C)CC2)n1 | > 100 µM | > 100 µM | > 100 µM | – | > 100 µM | > 100 µM | > 100 µM | > 100 µM | > 100 µM | > 100 µM | > 100 µM | > 100 µM | > 100 µM | > 100 µM | > 100 µM | > 100 µM | > 100 µM | – | > 100 µM | > 100 µM |
| CCOC(=O)c1csc(NC(=O)CCN2CCCC2)n1 | > 100 µM | > 100 µM | > 100 µM | > 100 µM | > 100 µM | > 100 µM | > 100 µM | > 100 µM | > 100 µM | > 100 µM | > 100 µM | > 100 µM | > 100 µM | > 100 µM | > 100 µM | > 100 µM | > 100 µM | – | > 100 µM | > 100 µM |
| OC(CC(O)(C(F)(F)Cl)C(F)(F)Cl)c1ccccc1 (stereo unspecified) | > 10 µM | > 10 µM | > 10 µM | > 10 µM | > 10 µM | > 10 µM | > 10 µM | > 10 µM | > 10 µM | > 10 µM | > 10 µM | > 10 µM | > 10 µM | > 10 µM | > 10 µM | > 10 µM | 0.0502 µM | > 10 µM | > 10 µM | > 10 µM |
| O=C(C(=C(I)I)c1ccccc1)c1ccccc1 | > 100 µM | 51.7 µM | > 100 µM | > 100 µM | 52.3 µM | 82.9 µM | > 100 µM | 21.4 µM | – | 58.1 µM | 88.8 µM | > 100 µM | 42.3 µM | – | 65.5 µM | 52.6 µM | 30.9 µM | > 100 µM | > 100 µM | > 100 µM |
| COc1cc(N=Nc2ccc(OC)c(S(=O)(=O)O)c2)c(C)cc1N=Nc1ccc(/C=C/c2ccc(N=[N+]([O-])c3ccc(/C=C/c4ccc(N=Nc5cc(C)c(N=Nc6ccc(OC)c(S(=O)(=O)O)c6)cc5OC)cc4S(=O)(=O)O)c(S(=O)(=O)O)c3)cc2S(=O)(=O)O)c(S(=O)(=O)O)c1 | – | > 100 µM | > 100 µM | > 100 µM | > 100 µM | > 100 µM | > 100 µM | > 100 µM | > 100 µM | > 100 µM | > 100 µM | > 100 µM | > 100 µM | > 100 µM | > 100 µM | > 100 µM | > 100 µM | > 100 µM | > 100 µM | > 100 µM |
| CCCn1cc2c3c(cccc31)C1C=C(C)CN(C)C1C2 (stereo unspecified) | 44.2 µM | 44.9 µM | 33.3 µM | 48 µM | 5.56 µM | 37.9 µM | 42.7 µM | 22.6 µM | 39.8 µM | 40.2 µM | 61.8 µM | 36.6 µM | 52.6 µM | 52.7 µM | 55.2 µM | 59.5 µM | 38.3 µM | 60.9 µM | 66.5 µM | 58.8 µM |
